Assays:
[1] = system: human iPS cells; assay: Sub-cellular localization in human iPS cells (co-staining with MitoRed, CCCP); assay type: cell-based; details: for sub-cellular localization: human iPS cells on feeder cells; for cells in which mitochondria are stained: human iPS cells and feeder cells
Protocol: Human iPS cells (clone#201B7) were plated on SNL feeder cells in 24-well plate. One day after plating, the cells were incubated with 1 μM Compound 1 for 4 hours at 37° C. After removing Compound 1 by washing with PBS, the cells were incubated with 9.6 nM MitoRed for 30 min at 37° C. The cells were rinsed with PBS and kept in fresh medium (without dye). Fluorescence microscopic images were taken by using Carl Zeiss Axioinvert 100M

[2] = system: mitochondrial proteins of human iPS cells; assay: 2-DE and mass analysis of mitochondrial proteins labeled in human iPS cells; assay type: cell-based; details: 1 μM, 4 hours, 2-dimensional SDS-PAGE
Protocol: Human iPS cells were treated with the chloroacetyl derivative of Compound 1 (Compound 22) (1 μM) for 4 hours, and then washed twice with PBS. After treatment with CTK solution (Reprocell) to remove SNL feeder cells, human iPS cells were harvested with treatment of accutase. Mitochondria fraction was obtained from the cell pellet by using ProteoExtract® Cytosol/Mitochondria Fractionation kit according to the manufacturer's instruction. Isoelectric focusing (IEF) was performed by using ampholine (pH 3.5-10, Phamalyte 3-10 for IEF, GE Healthcare). Then, the IEF strips were separated on 10% SDS-PAGE gel for 2D analysis. 2D fluorescence image was acquired using the Typhoon 9400 scanner (GE healthcares) at excitation/emission wavelengths of 532 nm/580 nm. The fluorescence-labeled spots were excised from the gel for mass analysis.

[3] = system: human iPS cells; assay: Image-based screening: fluorescence staining of human iPS cells versus feeder cells; assay type: cell-based; details: fluorescence images, human iPS cells on SNL feeder cells, FIG. 1A
Protocol: Fluorescent-compound libraries were provided from Young-Tae Chang's group (Ahn, Y-H., Lee, J-S. and Chang, Y-T. J. Am. Chem. Soc. 2007, 129, 4510-4511). Human iPS cells (clone#[…]) were plated on SNL feeder cells in 96-well plate. Five days after plating, fluorescent compounds were added at the final concentration of 4 μM. After incubation overnight, fluorescence microscopic images were taken by using Carl Zeiss Axioskop.

[4] = system: human iPS cells; assay: Flow cytometry (FACS) of mixtures of human iPS cells and feeder cells; assay type: cell-based
Protocol: Human iPS cells (clone#201B7) cells (Takahashi, K. et al. Cell 2007, 131, 861-872) were plated at a density of 2×10^5 cells/well of 6-well plate on SNL feeder cells (McMahon, A. P. and Bradley, A., Cell, 62, 1073-1085, 1990). Six days after plating, the cells were incubated with 2 μM Compound 1 (Table 2) for 3 hours (fluorescence microscopic images were taken at this point). The cells were dissociated with Accutase (Invitrogen) into single cells and stained with a-SSEA-4-Alexa647 for 30 min at room temperature. After washing, FACS (FACS Aria II) analysis was performed.

[5] = system: human iPS cells; assay: Fluorescence microscopic imaging of partially differentiated human iPS cells (donut-shaped colonies); assay type: cell-based; details: over-grown, 4 μM, 4.5 hours
Protocol: Human iPS cells (clone#201B7) were plated on SNL feeder cells in 96-well plate. […] These cells were incubated with 4 μM Compound 1 for 4.5 hours at 37° C. Fluorescence microscopic images were taken by using Carl Zeiss Axioskop.

[6] = system: human ES cells; assay: Fluorescence microscopic imaging of human ES cells and retinoic acid-differentiated cells; assay type: cell-based; details: 1 μM, 2 hours
Protocol: The hES cell line KhES-1 was maintained as described previously (Suemori, H. et al. Biochem. Biophys. Res. Commun. 2006, 345, 926-932). To induce differentiation of hESCs, cells seeded onto Matrigel-coated plate were cultured for 4 days with 500 nM all-trans retinoic acid (Sigma R2625) in DMEM supplemented with 10% FBS. After staining with 1 μM Compound 1 for 2 hours, cells were rinsed with PBS and kept in fresh medium (without dye). Fluorescent microscopy was performed by using Olympus IX71 with DP72.

[7] = target: T1, ABCB1 (MDR1) (Homo sapiens, UniProt P08183); assay: Accumulation of fluorescent compound in KB3-1 and KB/MDR1 cells; assay type: cell-based
T1 construct: expressed in transfected cells; host or cells: KB/MDR1 (derived from KB3-1)
T1 sequence (P08183 whole entry): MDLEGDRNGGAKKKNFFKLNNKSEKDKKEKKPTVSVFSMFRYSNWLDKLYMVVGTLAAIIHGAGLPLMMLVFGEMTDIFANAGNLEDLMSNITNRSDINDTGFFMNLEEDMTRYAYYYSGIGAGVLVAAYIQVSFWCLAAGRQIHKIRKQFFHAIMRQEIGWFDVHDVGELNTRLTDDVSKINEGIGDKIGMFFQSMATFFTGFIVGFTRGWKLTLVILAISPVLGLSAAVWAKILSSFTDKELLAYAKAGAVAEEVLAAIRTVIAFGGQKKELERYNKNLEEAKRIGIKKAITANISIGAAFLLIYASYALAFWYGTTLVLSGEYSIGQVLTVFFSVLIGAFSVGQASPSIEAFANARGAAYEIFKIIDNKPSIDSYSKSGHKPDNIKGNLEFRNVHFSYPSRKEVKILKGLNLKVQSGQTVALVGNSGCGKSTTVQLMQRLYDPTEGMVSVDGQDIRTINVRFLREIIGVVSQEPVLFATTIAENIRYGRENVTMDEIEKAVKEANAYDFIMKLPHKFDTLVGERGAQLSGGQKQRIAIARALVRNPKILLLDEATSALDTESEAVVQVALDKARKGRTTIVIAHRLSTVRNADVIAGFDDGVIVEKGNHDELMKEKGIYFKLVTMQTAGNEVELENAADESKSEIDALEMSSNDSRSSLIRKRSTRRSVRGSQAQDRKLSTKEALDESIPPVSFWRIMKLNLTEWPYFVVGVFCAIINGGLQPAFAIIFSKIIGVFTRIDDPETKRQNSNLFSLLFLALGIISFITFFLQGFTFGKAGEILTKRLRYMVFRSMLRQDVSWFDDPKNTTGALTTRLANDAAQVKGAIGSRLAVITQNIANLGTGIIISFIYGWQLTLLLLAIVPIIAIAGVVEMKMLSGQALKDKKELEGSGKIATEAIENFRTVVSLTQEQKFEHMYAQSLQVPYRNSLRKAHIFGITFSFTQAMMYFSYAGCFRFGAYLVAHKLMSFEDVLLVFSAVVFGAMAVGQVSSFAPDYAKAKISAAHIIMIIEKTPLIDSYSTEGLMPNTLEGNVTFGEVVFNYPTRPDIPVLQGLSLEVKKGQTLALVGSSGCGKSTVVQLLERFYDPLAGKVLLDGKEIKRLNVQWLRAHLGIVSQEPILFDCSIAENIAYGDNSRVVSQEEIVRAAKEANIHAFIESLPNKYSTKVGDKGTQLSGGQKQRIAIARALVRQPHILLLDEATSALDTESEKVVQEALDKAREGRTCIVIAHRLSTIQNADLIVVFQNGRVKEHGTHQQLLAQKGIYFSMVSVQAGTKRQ
Protocol: (§1) KB/MDR1, stably expressing human MDR1, and KB3-1 host cells (Ueda, K et al., PNAS 84, 3004-3008, 1987) were maintained in DMEM supplemented with 10% FBS in a humidified incubator (5% CO2) at 37° C. Cells were subcultured in 35 mm/glass base dish (IWAKI) at a density of 5×10^5 cells per dish in DMEM containing 10% FBS for 24-48 hours.

[8] = system: ABCB1 (MDR1); assay: as above; assay type: cell-based, human; details: KB3-1 cells with no MDR1 expression, 2 hrs
Protocol: as §1

[9] = target: T2, ABCG2 (Homo sapiens, UniProt Q9UNQ0); assay: Accumulation of fluorescent compound in cells with different ABCG2 expression; assay type: cell-based; details: stained cells regardless of expression level
T2 sequence (Q9UNQ0 1-655): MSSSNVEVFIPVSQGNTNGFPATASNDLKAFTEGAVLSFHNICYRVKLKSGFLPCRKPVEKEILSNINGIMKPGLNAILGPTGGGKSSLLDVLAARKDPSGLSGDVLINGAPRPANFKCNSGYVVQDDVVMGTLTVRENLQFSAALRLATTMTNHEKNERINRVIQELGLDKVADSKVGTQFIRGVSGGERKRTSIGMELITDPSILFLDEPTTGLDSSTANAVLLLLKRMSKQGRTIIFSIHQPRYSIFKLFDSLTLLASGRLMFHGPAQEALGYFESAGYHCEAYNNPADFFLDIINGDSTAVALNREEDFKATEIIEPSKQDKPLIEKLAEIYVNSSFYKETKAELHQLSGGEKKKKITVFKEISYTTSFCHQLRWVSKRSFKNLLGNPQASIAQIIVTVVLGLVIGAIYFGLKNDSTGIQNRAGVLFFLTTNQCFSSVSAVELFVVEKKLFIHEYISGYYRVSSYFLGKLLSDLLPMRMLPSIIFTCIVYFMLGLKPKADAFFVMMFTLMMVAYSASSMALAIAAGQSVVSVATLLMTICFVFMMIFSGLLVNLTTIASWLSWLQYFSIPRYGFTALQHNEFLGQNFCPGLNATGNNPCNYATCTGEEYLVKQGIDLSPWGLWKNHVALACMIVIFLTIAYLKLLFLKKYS
Protocol: (§2) Cells were subcultured in 35 mm/glass base dish (IWAKI) at a density of 5×10^5 cells per dish in DMEM containing 10% FBS for 24-48 hours. Then, cells were incubated in DMEM containing 10% FBS and the compounds for 2 hours at 37° C., washed with phosphate-buffered saline (PBS), and observed using a confocal microscope (LSM 700; Carl Zeiss).
(§3) MDR1-expressing model cell lines (KB/MDR1) were established from KB3-1, a cell line with no MDR1 expression. KB/MDR1 and KB3-1 were treated with Compound 1 for 2 hrs. Then, their images were observed under a fluorescent microscope (FIG. 4c, 4d). […] Similar experiments were conducted with ABCG2 and ABCC1 (MRP1).

[10] = target: ABCC1 (MRP1) (Homo sapiens, UniProt P33527); assay: Accumulation of fluorescent compound in cells with different ABCC1 (MRP1) expression; assay type: cell-based; details: stained cells regardless of expression level
Sequence of ABCC1 (MRP1) (P33527 whole entry): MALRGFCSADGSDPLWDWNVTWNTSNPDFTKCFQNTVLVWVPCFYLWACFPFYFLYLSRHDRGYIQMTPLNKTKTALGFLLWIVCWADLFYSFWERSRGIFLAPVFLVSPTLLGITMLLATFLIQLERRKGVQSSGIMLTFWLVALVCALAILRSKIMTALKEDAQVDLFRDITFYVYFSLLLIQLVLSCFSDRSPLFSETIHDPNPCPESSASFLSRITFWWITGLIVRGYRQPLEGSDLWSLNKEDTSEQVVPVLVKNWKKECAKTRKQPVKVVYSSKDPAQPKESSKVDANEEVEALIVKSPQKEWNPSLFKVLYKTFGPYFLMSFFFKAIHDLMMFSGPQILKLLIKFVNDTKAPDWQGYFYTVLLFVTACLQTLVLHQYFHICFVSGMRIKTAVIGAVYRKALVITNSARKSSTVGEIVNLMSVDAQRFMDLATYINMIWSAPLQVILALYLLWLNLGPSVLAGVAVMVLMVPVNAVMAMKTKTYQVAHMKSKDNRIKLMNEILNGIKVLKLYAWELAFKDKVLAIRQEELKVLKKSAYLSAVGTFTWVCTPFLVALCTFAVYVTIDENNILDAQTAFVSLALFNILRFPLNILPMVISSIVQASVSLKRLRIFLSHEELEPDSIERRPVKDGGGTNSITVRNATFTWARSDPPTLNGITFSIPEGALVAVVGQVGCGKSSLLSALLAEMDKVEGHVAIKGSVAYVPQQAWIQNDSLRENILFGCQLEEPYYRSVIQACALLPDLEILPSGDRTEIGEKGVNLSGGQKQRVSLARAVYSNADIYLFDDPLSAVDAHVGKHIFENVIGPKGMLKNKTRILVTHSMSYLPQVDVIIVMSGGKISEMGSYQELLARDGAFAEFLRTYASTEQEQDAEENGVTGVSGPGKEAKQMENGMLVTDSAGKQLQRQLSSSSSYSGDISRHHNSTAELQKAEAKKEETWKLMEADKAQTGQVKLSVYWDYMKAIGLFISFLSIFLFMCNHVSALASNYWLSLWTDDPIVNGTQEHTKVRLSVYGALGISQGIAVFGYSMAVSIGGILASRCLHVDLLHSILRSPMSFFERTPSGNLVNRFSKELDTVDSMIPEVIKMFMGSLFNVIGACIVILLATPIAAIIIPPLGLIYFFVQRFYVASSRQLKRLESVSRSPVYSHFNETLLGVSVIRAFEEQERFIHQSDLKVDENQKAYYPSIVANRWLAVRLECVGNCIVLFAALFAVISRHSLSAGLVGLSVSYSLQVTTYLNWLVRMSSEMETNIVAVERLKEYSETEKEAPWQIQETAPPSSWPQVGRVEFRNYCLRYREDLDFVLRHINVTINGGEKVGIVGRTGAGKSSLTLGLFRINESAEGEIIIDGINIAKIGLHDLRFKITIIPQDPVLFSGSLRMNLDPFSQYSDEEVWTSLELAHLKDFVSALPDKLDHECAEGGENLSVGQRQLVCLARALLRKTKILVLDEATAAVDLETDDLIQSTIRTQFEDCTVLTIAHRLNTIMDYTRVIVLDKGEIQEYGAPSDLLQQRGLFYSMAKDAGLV
Protocol: as §2, §3

[11] = system: human ES cells; assay: Microscopy and FACS of human ES cells and differentiated cells; assay type: cell-based
Protocol: Cells were prepared as above. After staining with 1 μM Compound 1 for 1 hour, cells were rinsed with PBS and cultured for additional 24 hours. Fluorescent microscopy was performed by using Olympus IX71 with DP72. CsA was added at the concentration of 10 μM during staining with Compound 1 and following culture until analysis. For FACS analysis, the cells were washed twice with ice-cold PBS and then dissociated with 0.25% trypsin-EDTA into a single cell suspension for direct analysis. The proportions of cells with Compound 1 were examined on a FACSCalibur flow cytometer (Becton Dickenson, Calif., USA) with reference to a baseline of untreated undifferentiated or differentiated hESCs.

[12] = doubly stained with Compound 1 and anti-SSEA-4 antibody
[13] = mixture of human iPS cells and feeder cells, 2 μM, 3 hours, flow cytometry

N=c1ccc2c(-c3ccc(F)cc3)c3ccc(NCCCCCCCCCCNC(=O)CCl)cc3oc-2c1 [Compound 22]
selectivity for human iPS cells relative to Compound 1 ([1]; human iPS cells): slightly less than that of Compound 1 | sub-cellular localization [1]: localized in mitochondria of human iPS cells | fluorescently labeled mitochondrial protein identified by mass-sequencing [2]: ADH1 protein

ClCc1ccc(C2=c3cc4c5c(c3Oc3c2cc2c6c3CCCN6CCC2)CCC[N+]=5CCC4)cc1.[Cl-] [MitoRed, reference compound]
cells in which mitochondria are stained [1]: both in human iPS cells and feeder cells

N=c1ccc2c(-c3ccccc3F)c3ccc(N)cc3oc-2c1 [Compound 36]
staining of human iPS cells compared with feeder cells [3]: stained human iPS cells stronger than feeder cells

N=c1ccc2c(-c3ccc(F)cc3)c3ccc(N)cc3oc-2c1 [Compound 1]
SSEA-4-negative cells not stained by Compound 1 [4, 12]: 55.2% | SSEA-4-positive cells also stained by Compound 1 [4, 12]: 42.4% | specificity of staining for iPS cells ([4]; human iPS cells versus feeder cells): capable of staining iPS cells specifically | Compound 1-negative population [4, 13]: 56.6% | Compound 1-positive population [4, 13]: 43.4% | staining of donut-shaped iPS cell colonies [5]: selectively stained undifferentiated parts of those colonies but not the central parts | staining after partial differentiation by retinoic acid ([6]; 500 nM retinoic acid 4 days): less densely stained parts of colonies | staining of human ES cell colonies compared with feeder cells [6]: stained more strongly than feeder cells | staining pattern in the presence of CCCP ([1]; CCCP 5 μM, 1 μM, 2 hours): remained the same | cells in which mitochondria are stained [1]: only in iPS cells | sub-cellular localization [1]: overlaps with that of MitoTracker Red | fluorescent signals in MDR1-expressing cells ([7]; KB/MDR1 cells, 2 hrs): undetectable | substrate for ABCB1 (MDR1) ([7]; KB/MDR1 versus KB3-1): good substrate | staining of KB3-1 cells [8]: strongly stained | substrate for ABCG2 [9]: not a substrate | substrate for ABCC1 (MRP1) [10]: not a substrate | fluorescence of human ES cells ([11]; 1 μM, 1 hour, microscopy): strong fluorescence | labeling of differentiated cells in the presence of cyclosporine A ([11]; cyclosporine A (MDR1 inhibitor) 10 μM): even the differentiated cells were labeled | fluorescence of differentiated cells ([11]; derived from human ES cells by retinoic acid, 1 μM, 1 hour, microscopy): little | staining of human ES cells relative to differentiated cells ([11]; flow cytometric analysis): ~100 times

C/N=c1\ccc2c(-c3ccc(F)cc3)c3ccc(NC)cc3oc-2c1 [Compound 35]
staining of human iPS cells compared with feeder cells [3]: stained human iPS cells stronger than feeder cells
